Patent US20250170090A1, “METHOD FOR PREVENTING OR TREATING DISEASE OR DISORDER ASSOCIATED WITH ANTINEOPLASTIC AGENT” (ONQUALITY PHARMACEUTICALS CHINA LTD., priority 2022, published 2025)
Like-named read-outs stand apart in the source and are kept apart here.

What was measured:
[1] = tested on: hand-foot syndrome induced by anti-tumor agents; assay: Prevention of hand-foot syndrome induced by anti-tumor agents in rats, NO-NSAID ointment on hind paws (Table 2-2); format: in vivo, SD rats; conditions: Rattus norvegicus, topical, read-out: Control rate; for responders at 0.5 %: ointment 0.50% wt; for responders at 1 %: ointment 1% wt; for responders at 2.5 %: ointment 2.50% wt; for responders at 5 %: ointment 5% wt
Excerpt: A rat animal model was constructed, and the anti-tumor agents shown in Table 2-2 were respectively administered to 8-week-old female SD rats by daily oral gavage. […] Therefore, rats serve as an excellent animal model for simulating side effects (such as hand-foot syndrome) caused by anti-tumor agents.
After the rats (about 200 g) were fed and adapted for one week, they were divided into a NO-NSAID group and a control group, with 10 rats in each group, and a gavage administration test was conducted. The various anti-tumor agents were dissolve in a mixed solution of Cremophor EL:ethanol=1:1. The anti-tumor agent solution were diluted with PBS to the required concentration (about 3 times with PBS solution) before gavage administration. After gavage, an ointment containing NO-NSAID was applied to the hind paws of the rats, while the control group was applied with a blank ointment. After application, the rats were placed in a fixed cylinder for 4 hours. After 4 hours, the rats were released and the residual ointment was wiped off with clean water, then the rats were returned to the cage. The gavage frequency of inhibitors was shown in Table 2-2, and NO-NSAID was only applied once a day. The gavage and application operations were repeated daily until the end of the experiment.
Table 2-2 lists the animal experimental combinations of various anti-tumor agents and NO-NSAID ointments, as well as the corresponding experimental results (wherein the value in the control rate column=the hand-foot syndrome incidence rate in the blank group−the hand-foot syndrome incidence rate in the treatment group).

[2] = tested on: hand-foot syndrome caused by anti-tumor agents; assay: Treatment of established hand-foot syndrome caused by anti-tumor agents in rats (Table 4); format: in vivo
Description: After the rats (about 200 g) were fed and adapted for one week, the rats were divided into groups of 10 rats for gavage administration experiment. The anti-tumor agent was dissolved in a mixed solution of Cremophor EL:ethanol=1:1, and diluted with PBS to the required concentration (diluted about 3 times with PBS solution) before gavage. […] Specific experimental procedures followed those outlined in the prevention experiment. […] Table 4 lists the animal experiments using various anti-tumor agents and NO-NSAID ointment, as well as the corresponding experimental results (where the value in the control rate column=the incidence rate of hand-foot syndrome in the blank group−the incidence rate of hand-foot syndrome in the treatment group).

[3] = tested on: human immortalized keratinocytes (HaCaT); assay: CCK-8 cell viability: alleviation of proliferative toxicity of anti-tumor agents on HaCaT (Table 8-1); format: cell-based; conditions: NO-NSAID 100 μM, percentage increase in viable cells vs anti-tumor agent alone
Description: (§1) Experiments were conducted using various epithelial cells: Examples 47-51 used human immortalized keratinocytes (HaCaT) with corresponding results in Table 8-1; Examples 52-56 used human oral keratinocytes (HOK) with results in Table 8-2; Examples 57-61 used gastric epithelial cells (GES-1) with results in Table 8-3; Examples 62-66 used human intestinal epithelial cells (FHs 74 Int) with results in Table 8-4.
(§2) The cultured cells were digested the suspended, counted, and seed into a 96-well plate with 5,000-10,000 cells per well. The wells are divided into the following groups: blank control group, anti-tumor agent group, anti-tumor agent+NO-NSAID group, anti-tumor agent solvent group, NO-NSAID solvent control group. Wherein each well of each group contained a basic medium, and the final liquid volume contained in each well was about 100 μL. The grouping situation was as follows: • 1) Blank control group: no solution was added except normally replacing the medium; • 2) Anti-tumor agent group: added the anti-tumor agent solution (the final concentration was shown in Table 8-1 to Table 8-4, the solvent of the anti-tumor agent solution was DMSO); • 3) Anti-tumor agent+NO-NSAID group: added the anti-tumor agent solution and the NO-NSAID solution (the final concentrations of anti-tumor agent and NO-NSAID were shown in Table 8-1 to Table 8-4, and according to the solubility of NO-NSAID, the solvent of NO-NSAID solution was selected as ethanol or sterile water, and minor volume differences in each group were adjusted by added the corresponding solvent); • 4) Anti-tumor agent solvent group: an equal volume of DMSO as contained in the corresponding anti-tumor agent solution in Group 2) was added; • 5) NO-NSAID control group: the same volume and type of solvent (for example, ethanol or sterile water) corresponding to the NO-NSAID contained in group 3) was added.
(§3) The anti-tumor agent solvent group was not involved in data processing and was only used as a reference for evaluating experimental system error. The NO-NSAID solvent control group was used for data correction to eliminate the influence of the solvent on the results.
(§4) After culturing for 24-48 hours, the Cell Counting Kit-8 (CCK-8) detection kit (C0037, Shanghai Beyotime Biotechnology Co., Ltd., Beyotime Biotechnology) was used to determine the cell viability. This allows for the calculation of the proliferative toxicity of anti-tumor agent on cell and the mitigating effect of NO-NSAID on proliferative toxicity. The results were statistically analyzed and plotted using GraphPad Prism 6.0 software and t test.

[4] = tested on: gastric epithelial cells (GES-1); assay: CCK-8 cell viability: alleviation of proliferative toxicity of anti-tumor agents on GES-1 (Table 8-3); format: cell-based, human; conditions: NO-NSAID 100 μM
Description: as §1, §2, §3, §4

[5] = tested on: human intestinal epithelial cells (FHs 74 Int); assay: CCK-8 cell viability: alleviation of proliferative toxicity of anti-tumor agents on FHs 74 Int (Table 8-4); format: cell-based; conditions: NO-NSAID 100 μM
Description: as §1, §2, §3, §4

[6] = 120 h, Sorafenib 80 mg/kg once a day, Days 5
[7] = 432 h, Cabozantinib 50 mg/kg once a day, Days 18
[8] = 432 h, Lenvatinib 100 mg/kg twice a day, Days 18
[9] = 432 h, Nintedanib 110 mg/kg once a day, Days 18
[10] = 432 h, Regorafenib 90 mg/kg once a day, Days 18

`COc1ccc2cc(C(C)C(=O)OCCCCO[N+](=O)[O-])ccc2c1` (stereo not drawn) [Compound A5] was tested, and the responders at 0.5 % [1, 6] was 28.6%, the responders at 1 % [1, 6] was 50% and the responders at 2.5 % [1, 6] was 71.4%. For the same molecule, the responders at 5 % [1, 6] was 80%, the responders at 2.5 % ([1]; 360 h, Apatinib 105 mg/kg once a day, Days 15) was 42.9% and the responders at 2.5 % ([1]; 360 h, Encorafenib 80 mg/kg once a day, Days 15) was 66.7%. The responders at 2.5 % ([1]; 360 h, Lapatinib 120 mg/kg twice a day, Days 15) was 60%, the responders at 2.5 % ([1]; 360 h, Sunitinib 120 mg/kg once a day, Days 15) was 57.1% and the responders at 2.5 % ([1]; 384 h, Fruquintinib 40 mg/kg once a day, Days 16) was 42.9%. The responders at 2.5 % ([1]; 432 h, Anlotinib 20 mg/kg once a day, Days 18) was 50%, the responders at 2.5 % ([1]; 432 h, Axitinib 50 mg/kg once a day, Days 18) was 66.7% and the responders at 1 % [1, 7] was 42.9%. It also gave a responders at 2.5 % [1, 7] of 60%, a responders at 5 % [1, 7] of 57.1% and a responders at 1 % [1, 8] of 28.6%. It also gave a responders at 2.5 % [1, 8] of 71.4%, a responders at 5 % [1, 8] of 71.4% and a responders at 1 % [1, 9] of 40%. It also gave a responders at 2.5 % [1, 9] of 66.7%, a responders at 5 % [1, 9] of 50% and a responders at 0.5 % [1, 10] of 50%. It also gave a responders at 1 % [1, 10] of 71.4%, a responders at 2.5 % [1, 10] of 71.4% and a responders at 5 % [1, 10] of 83.3%. For the same molecule, the responders at 2.5 % ([1]; 480 h, Erdafitinib 45 mg/kg once a day, Days 20) was 57.1%, the responders at 2.5 % ([1]; 480 h, Olmutinib 100 mg/kg once a day, Days 20) was 66.7% and the Response rate ([2]; Apatinib 105 mg/kg once every two days, ointment 2.50% wt, Days 6) was 28.57%. For the same molecule, the Response rate ([2]; Cabozantinib 50 mg/kg once every two days, ointment 1% wt, Days 11) was 33.33%, the Response rate ([2]; Encorafenib 80 mg/kg once every two days, ointment 2.50% wt, Days 7) was 40.00% and the Response rate ([2]; Erdafitinib 45 mg/kg once every two days, ointment 2.50% wt, Days 13) was 40.00%. The Response rate ([2]; Fruquintinib 40 mg/kg once every two days, ointment 2.50% wt, Days 8) was 28.57%, the Response rate ([2]; Lenvatinib 65 mg/kg once a day, ointment 2.50% wt, Days 12) was 42.86% and the Response rate ([2]; Olmutinib 100 mg/kg once every two days, ointment 2.50% wt, Days 10) was 50.00%. For the same molecule, the Response rate ([2]; Regorafenib 90 mg/kg once every two days, ointment 5% wt, Days 6) was 57.14%, the Response rate ([2]; Sorafenib 80 mg/kg once every two days, ointment 2.50% wt, Days 5) was 50.00% and the Response rate ([2]; Sunitinib 120 mg/kg once every two days, ointment 2.50% wt, Days 7) was 33.33%. The “Response rate % (average)” value ([3]; Afatinib (10 μM)) was 32%, the “Response rate % (average)” value ([3]; Cabozantinib (5 μM)) was 44% and the “Response rate % (average)” value ([3]; Dabrafenib (10 μM)) was 7%. The “Response rate % (average)” value ([3]; Everolimus (5 μM)) was 9%, the “Response rate % (average)” value ([3]; Infigratinib (15 μM)) was 12% and the “Response rate % (average)” value ([3]; Lapatinib (5 μM)) was 41%. The “Response rate % (average)” value ([3]; Lenvatinib (10 μM)) was 9%, the “Response rate % (average)” value ([3]; Olmutinib (10 μM)) was 40% and the “Response rate % (average)” value ([3]; Regorafenib (5 μM)) was 22%. The “Response rate % (average)” value ([3]; Selumetinib (5 μM)) was 13%, the “Response rate % (average)” value ([3]; Sorafenib (5 μM)) was 31% and the “Response rate % (average)” value ([3]; Sunitinib (5 μM)) was 33%. The “Response rate % (average)” value ([4]; Afatinib (10 μM)) was 18%, the “Response rate % (average)” value ([4]; Cabozantinib (5 μM)) was 37% and the “Response rate % (average)” value ([4]; Dabrafenib (10 μM)) was 12%. For the same molecule, the “Response rate % (average)” value ([4]; Everolimus (5 μM)) was 33%, the “Response rate % (average)” value ([4]; Infigratinib (15 μM)) was 36% and the “Response rate % (average)” value ([4]; Lapatinib (5 μM)) was 40%. The “Response rate % (average)” value ([4]; Lenvatinib (10 μM)) was 29%, the “Response rate % (average)” value ([4]; Olmutinib (10 μM)) was 35% and the “Response rate % (average)” value ([4]; Regorafenib (5 μM)) was 14%. For the same molecule, the “Response rate % (average)” value ([4]; Selumetinib (5 μM)) was 12%, the “Response rate % (average)” value ([4]; Sorafenib (5 μM)) was 22% and the “Response rate % (average)” value ([4]; Sunitinib (5 μM)) was 21%. The “Response rate % (average)” value ([5]; Afatinib (10 μM)) was 34%, the “Response rate % (average)” value ([5]; Cabozantinib (5 μM)) was 36% and the “Response rate % (average)” value ([5]; Dabrafenib (10 μM)) was −3%. The “Response rate % (average)” value ([5]; Everolimus (5 μM)) was 28%, the “Response rate % (average)” value ([5]; Infigratinib (15 μM)) was 16% and the “Response rate % (average)” value ([5]; Lapatinib (5 μM)) was 43%. The “Response rate % (average)” value ([5]; Lenvatinib (10 μM)) was 32%, the “Response rate % (average)” value ([5]; Olmutinib (10 μM)) was 31% and the “Response rate % (average)” value ([5]; Regorafenib (5 μM)) was 17%. For the same molecule, the “Response rate % (average)” value ([5]; Selumetinib (5 μM)) was 23%, the “Response rate % (average)” value ([5]; Sorafenib (5 μM)) was 24% and the “Response rate % (average)” value ([5]; Sunitinib (5 μM)) was 38%.
